Here are results for two molecules from patent publication US20250282798A1, “HETEROARYL-SUBSTITUTED BICYCLIC COMPOUND AND USE THEREOF” (Medshine Discovery Inc., priority 2022, published 2025).

The test system of one assay is Jurkat cells. Kind of assay: IL-2 assay of Jurkat cells (ELISA). The conditions noted are these: CD3/CD28 antibodies, 48 hours. The class given is cell-based. On the procedure: The concentration of Jurkat cells growing in the logarithmic phase was adjusted to 1×10^6/mL. 100 μL/well of the cells was taken and plated in a 96-well round-bottom plate coated with CD3 antibodies. The cells were treated with different concentrations of the compounds with the addition of CD28 antibodies for 48 hours. The supernatant of the cell culture was collected, diluted 5-fold, and added to an ELISA plate coated with IL-2. The enzyme-linked immunosorbent assay was performed according to the kit instructions (Dakewe, 1110202). OD570 and OD450 were read with Envision, and the data were analyzed by Prism.
For orientation: In an ELISA, binding on a coated surface is turned into a signal by an enzyme label.

Another assay has as its target human HPK1 (Homo sapiens (Human), UniProt Q92918). Kind of assay: 33P isotope-labeled kinase activity assay (Method 1). The format is biochemical. The following applies: HPK1 enzyme concentration 8.1 nM; ATP concentration 15 μM. The method, then: Method 1: The IC50 value was assayed by ^33P isotope-labeled kinase activity assay to evaluate the inhibitory ability of a test compound on human HPK1.
Enzyme buffer conditions: 50 mM Hepes (pH 7.5), 10 mM MgCl2, 1 mM EGTA, 0.01% Brij35, 2 mM DTT.
Assay steps: A compound was diluted 3-fold with DMSO in a dilution plate, with a final initial concentration of […] and 10 concentration gradient points. The compound was diluted 50-fold into the kinase reaction buffer, and the mixture was shaken on a shaker for 20 minutes. The kinase was prepared with the enzyme reaction buffer. 2 μL of kinase was added to each well of a reaction plate. 1 μL of the diluted compound in the buffer was added to each well. The plate was sealed with a sealing film, centrifuged at 1000 g for 30 seconds, and placed at room temperature for 10 minutes. The mixed solution of ATP/MBP was prepared with the enzyme reaction buffer. 2 μL of the mixed solution of ATP/MBP was added to the reaction plate. The plate was sealed with a sealing film, and centrifuged at 1000 g for 30 seconds. The mixture in the plate was reacted at room temperature for 60 minutes. […] The plate was incubated at 25° C. for 40 min. […] The plate was incubated at 25° C. for 40 min. The RLU (relative luminescence unit) signal was read with a BMG microplate reader, and the signal intensity was used to characterize the activity of the kinase.

Chain of human HPK1 (Q92918 whole entry): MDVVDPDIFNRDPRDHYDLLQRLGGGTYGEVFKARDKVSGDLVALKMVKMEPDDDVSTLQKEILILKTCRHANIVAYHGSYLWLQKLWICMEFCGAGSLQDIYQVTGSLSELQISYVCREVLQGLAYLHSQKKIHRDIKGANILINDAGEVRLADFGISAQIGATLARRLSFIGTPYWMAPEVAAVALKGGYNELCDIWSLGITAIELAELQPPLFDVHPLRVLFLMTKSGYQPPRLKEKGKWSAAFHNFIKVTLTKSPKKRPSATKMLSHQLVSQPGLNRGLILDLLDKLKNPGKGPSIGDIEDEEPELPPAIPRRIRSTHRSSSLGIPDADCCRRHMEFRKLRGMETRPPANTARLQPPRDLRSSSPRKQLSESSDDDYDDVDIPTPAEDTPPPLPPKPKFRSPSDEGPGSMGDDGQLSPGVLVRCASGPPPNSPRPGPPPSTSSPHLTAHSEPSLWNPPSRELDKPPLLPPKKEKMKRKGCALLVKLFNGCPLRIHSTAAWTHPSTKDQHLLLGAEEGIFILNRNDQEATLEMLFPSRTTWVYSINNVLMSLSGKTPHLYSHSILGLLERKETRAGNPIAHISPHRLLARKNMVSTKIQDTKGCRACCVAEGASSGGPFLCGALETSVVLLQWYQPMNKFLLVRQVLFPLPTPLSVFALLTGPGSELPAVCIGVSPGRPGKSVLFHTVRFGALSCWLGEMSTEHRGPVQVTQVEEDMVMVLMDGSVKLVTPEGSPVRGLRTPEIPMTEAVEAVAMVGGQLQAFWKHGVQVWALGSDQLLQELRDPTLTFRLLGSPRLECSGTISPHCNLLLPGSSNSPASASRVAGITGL

`Cn1ccc2c(-c3ccc(Nc4ccc5c(n4)OC[C@H]4CNCCN54)c4c3CNC4=O)ccnc21` [Compound 5]: the EC50 (as a rule, the concentration at which the effect is half-maximal) with Jurkat cells is 710 nM. Further, the IC50 (usually the concentration needed to halve the response being measured) on human HPK1 was determined as 3 nM.
Regarding `CCN1CCN2c3ccc(Nc4ccc(-c5ccnc6c5ccn6C)c5c4C(=O)NC5)nc3OC[C@H]2C1` [Compound 6], in the assay on Jurkat cells (Homo sapiens), a half-maximal effect (EC50) was put at 320 nM. For the same molecule, 8 nM corresponded to half-maximal inhibition at human HPK1 (IC50).
